Laboratory results published in US4517007A, “Phosphoroamide urease inhibitors and urease inhibited urea based fertilizer compositions” (Allied Corporation, priority 1983, dated 1985).

System: urease
Test: Urease Inhibition Efficacy Test in soil (urea remaining after incubation)
Assay type: biochemical
Conditions: 800 micrograms test compound and 42.8 mg urea on 20 g air-dry Cazenovia silt loam, pH 7.0; incubated at 25° C. for three days; run in triplicate
Procedure: Efficacy tests were conducted to evaluate the efficacy of representative compounds as urease inhibitors. The inhibition tests were run in a New York soil (Cazenovia silt loam, pH 7.0). Evaluations (run in triplicate) consisted of applying 800 micrograms of the test compound in 5 mL of water and 42.8 mg of urea in 1 mL of water to 20 g of air-dry soil in a glass bottle. The bottle was capped with perforated aluminum foil and incubated at 25° C. for three days prior to extraction with 100 mL of a 2M KCl solution containing 0.5 mg of phenylmercuric acetate. The extracts were then analyzed for remaining urea using an autoanalyzer. Percent inhibition was calculated as [formula] where A is urea recovered from an unincubated sample (urea added to soil and immediately extracted); B is urea recovered from an inhibited sample; and C is urea recovered from the control (uninhibited sample).

| Structure (SMILES) | % Inhibition 40 micrograms per gram Cazenovia soil [%] |
| --- | --- |
| NP1(=O)Oc2ccccc2O1 [Experiment 1] | 54 |
| NP(N)(=O)Oc1cccc2c1OP(N)(=O)O2 (stereo not drawn) [Experiment 2] | 5 |
| NP(N)(=O)Oc1ccc2c(c1)OP(N)(=O)O2 (stereo not drawn) [Experiment 3] | 21 |
